Measured values from publication PMC7450057, “Enhancing intracellular accumulation and target engagement of PROTACs with reversible covalent chemistry” (Nature Communications, 2020).
Where “and” joins values, the source holds several entries; their conditions need not be identical. Equal entries are not always repeated.

Columns and labels:
Jeko-1 = assay: IC50 in MCL cell lines (Supplementary Table 2), Jeko-1; conditions: for IC50: Jeko-1, triplicates; for Cell Viability (%): Jeko-1 cells, replicate wells
BTK = BTK (Homo sapiens, UniProt Q06187); assay: BTK degradation in MOLM-14 cells (western blot); assay type: cell-based; parameters: endogenous in cells; host or cells: MOLM-14; conditions: for Quantification anti-BTK / anti-β-actin (BTK level vs DMSO): Figure 2d, DMSO = 100 (mean); for BTK degradation (in words): MOLM-14 cells, 200 nM, 24 h (Fig. 2d)
Chain of BTK (Q06187 whole entry): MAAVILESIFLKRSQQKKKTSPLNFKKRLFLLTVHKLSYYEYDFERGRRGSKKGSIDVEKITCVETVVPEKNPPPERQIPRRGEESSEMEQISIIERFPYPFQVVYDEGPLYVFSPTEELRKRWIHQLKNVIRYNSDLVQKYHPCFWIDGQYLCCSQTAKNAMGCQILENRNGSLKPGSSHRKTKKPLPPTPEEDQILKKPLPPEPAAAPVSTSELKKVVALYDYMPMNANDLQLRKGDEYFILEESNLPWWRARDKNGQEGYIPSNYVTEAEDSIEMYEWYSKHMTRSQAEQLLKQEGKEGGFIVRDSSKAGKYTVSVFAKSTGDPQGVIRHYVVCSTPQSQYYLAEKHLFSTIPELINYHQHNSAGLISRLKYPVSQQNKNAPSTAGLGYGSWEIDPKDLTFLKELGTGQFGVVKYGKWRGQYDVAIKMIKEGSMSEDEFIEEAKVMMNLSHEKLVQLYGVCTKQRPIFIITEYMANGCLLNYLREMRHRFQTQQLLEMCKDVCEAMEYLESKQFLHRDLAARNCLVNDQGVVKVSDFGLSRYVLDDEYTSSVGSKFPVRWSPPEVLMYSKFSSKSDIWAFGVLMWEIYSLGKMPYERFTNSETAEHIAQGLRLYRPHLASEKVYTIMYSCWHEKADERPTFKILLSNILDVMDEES

SMILES | IC50 (Jeko-1) [nM] | Cell Viability (%) (Jeko-1; 1.25E-06 M) | Cell Viability (%) (Jeko-1; 1.56E-07 M) | Cell Viability (%) (Jeko-1; 2.50E-06 M) | Cell Viability (%) (Jeko-1; 3.13E-07 M) | Cell Viability (%) (Jeko-1; 5.00E-06 M) | Cell Viability (%) (Jeko-1; 6.25E-07 M) | Cell Viability (%) (Jeko-1; 7.81E-08 M) | Quantification anti-BTK / anti-β-actin (BTK level vs DMSO) (BTK) | BTK degradation (in words) (BTK) | BTK degradation (in words) (BTK; listed as RC-1 warhead)
CN1C(=O)CCC(N2C(=O)c3cccc(NCC(=O)NCCCN(C)C(C)(C)C=C(C#N)C(=O)N4CCCC(n5nc(-c6ccc(Oc7ccccc7)cc6)c6c(N)ncnc65)C4)c3C2=O)C1=O (stereo not drawn) [RC-1-Me] | 600 | 36.268% and 32.7063% and 31.5519% | 68.2022% and 62.2702% and 73.2784% | 5.54% and 14.7844% and 6.721% | 71.0782% and 71.3298% and 71.3347% | 4.5335% and 3.7442% and 3.927% | 49.1754% and 57.0313% and 33.3624% | 77.062% and 93.1685% and 69.7463% | 91.1107 | cannot degrade BTK in cells | 
CC(C)(C)C=C(C#N)C(=O)N1CCCC(n2nc(-c3ccc(Oc4ccccc4)cc3)c3c(N)ncnc32)C1 (stereo not drawn) [RC-Ctrl] | 600 | 31.3102% and 33.1774% and 45.3843% | 69.2456% and 61.0172% and 73.2882% | 11.5927% and 9.314% and 11.5138% | 58.8318% and 42.4713% and 68.6832% | 5.458% and 5.865% and 4.45% | 52.1031% and 47.1602% and 45.3596% | 53.9062% and 67.1539% and 84.5751% | 83.2734 | Neither RC-Ctrl, nor pomalidomide, nor a combination of both caused BTK degradation | neither the RC-1 warhead, nor pomalidomide, nor a combination of both caused BTK degradation
